Experimental data reported in US9969742B2, “Imidazotriazinone compounds” (Ironwood Pharmaceuticals, Inc., priority 2012, dated 2018).
Where two headings read alike, the source gives them in different places. Each block holds one compound with its values, some of them ahead of it.

What was measured:
Format in all cases: biochemical
[1] = biological target: T1, PDE9A2 (Homo sapiens, UniProt O76083); assay: Phosphodiesterase enzyme screening assay, PDE9A2
T1 construct: purchased Reaction Biology Corporation, Malvern, Pa
T1 sequence (O76083 1-533 isoform O76083-2): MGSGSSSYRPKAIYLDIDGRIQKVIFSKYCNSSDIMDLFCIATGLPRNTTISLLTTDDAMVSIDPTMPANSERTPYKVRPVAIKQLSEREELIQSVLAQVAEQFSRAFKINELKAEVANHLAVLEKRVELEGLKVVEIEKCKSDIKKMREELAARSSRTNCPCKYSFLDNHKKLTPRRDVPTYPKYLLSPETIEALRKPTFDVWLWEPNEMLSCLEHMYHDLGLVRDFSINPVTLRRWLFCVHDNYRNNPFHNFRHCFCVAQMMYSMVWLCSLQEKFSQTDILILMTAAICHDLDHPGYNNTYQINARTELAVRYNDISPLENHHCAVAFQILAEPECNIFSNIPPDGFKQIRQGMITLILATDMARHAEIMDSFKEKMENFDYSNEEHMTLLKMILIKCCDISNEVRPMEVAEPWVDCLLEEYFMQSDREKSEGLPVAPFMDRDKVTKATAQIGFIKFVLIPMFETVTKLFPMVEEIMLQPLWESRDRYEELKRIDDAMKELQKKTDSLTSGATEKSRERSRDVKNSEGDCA
Outline: (§1)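 Human PDE isoforms were incubated 1 h at room temperature with 4.0 μM fluorescent cGMP substrate in 100 mM HEPES pH 7.5, 5 mM MgCl2, 1 mM DTT, 0.003% Brij. EDTA stop buffer ended reactions, and substrate and 5′-GMP product were separated by microfluidic electrophoretic mobility shift with laser-induced fluorescence. Inhibition was calculated against control wells.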

[2] = biological target: T2, PDE1A (Homo sapiens, UniProt P54750); assay: Phosphodiesterase enzyme screening assay, PDE1A
T2 construct: purchased Reaction Biology Corporation, Malvern, Pa
T2 sequence (P54750 whole entry): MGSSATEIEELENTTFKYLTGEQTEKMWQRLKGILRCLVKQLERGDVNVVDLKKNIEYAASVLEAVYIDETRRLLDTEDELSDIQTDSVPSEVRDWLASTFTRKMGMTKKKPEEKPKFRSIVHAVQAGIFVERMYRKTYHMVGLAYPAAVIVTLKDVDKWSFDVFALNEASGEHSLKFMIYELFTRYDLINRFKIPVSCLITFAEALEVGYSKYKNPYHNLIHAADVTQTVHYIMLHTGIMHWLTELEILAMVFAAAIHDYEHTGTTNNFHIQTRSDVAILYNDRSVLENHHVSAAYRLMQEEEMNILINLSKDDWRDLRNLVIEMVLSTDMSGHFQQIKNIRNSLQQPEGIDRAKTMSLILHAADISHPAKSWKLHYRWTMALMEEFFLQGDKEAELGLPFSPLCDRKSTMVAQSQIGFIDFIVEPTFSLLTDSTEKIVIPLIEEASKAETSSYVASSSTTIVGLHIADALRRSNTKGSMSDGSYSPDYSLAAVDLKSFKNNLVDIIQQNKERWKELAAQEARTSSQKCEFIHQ
Outline: as §1

[3] = biological target: T3, PDE1B (Homo sapiens, UniProt Q01064); assay: Phosphodiesterase enzyme screening assay, PDE1B
T3 construct: purchased Reaction Biology Corporation, Malvern, Pa
T3 sequence (Q01064 whole entry): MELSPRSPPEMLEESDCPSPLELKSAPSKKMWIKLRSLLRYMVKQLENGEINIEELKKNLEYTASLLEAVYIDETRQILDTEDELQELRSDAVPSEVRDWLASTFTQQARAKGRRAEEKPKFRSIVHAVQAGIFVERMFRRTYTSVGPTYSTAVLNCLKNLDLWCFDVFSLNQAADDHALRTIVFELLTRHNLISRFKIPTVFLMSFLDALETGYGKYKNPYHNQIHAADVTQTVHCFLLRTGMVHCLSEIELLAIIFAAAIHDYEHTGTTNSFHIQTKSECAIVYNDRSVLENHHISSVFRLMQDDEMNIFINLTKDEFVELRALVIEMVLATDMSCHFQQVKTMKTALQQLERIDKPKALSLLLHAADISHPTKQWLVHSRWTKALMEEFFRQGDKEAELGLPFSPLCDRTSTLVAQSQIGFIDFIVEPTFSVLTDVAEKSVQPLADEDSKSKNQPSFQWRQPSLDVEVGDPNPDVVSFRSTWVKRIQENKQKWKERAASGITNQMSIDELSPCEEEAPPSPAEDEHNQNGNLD
Outline: as §1

[4] = Table 1, 10 concentrations, 4.0 μM cGMP substrate, 1 hour at R.T., read-out: Band (PDE9A2 IC50)
[5] = Table 1, ratio of IC50 values, value greater than 1 indicates greater selectivity for PDE9A2
[6] = 4.0 μM cGMP substrate, 1 hour at R.T., read-out: Band (PDE9A2 IC50)
[7] = ratio of IC50 values PDE1A / PDE9A2, value greater than 1 = greater selectivity for PDE9A2
[8] = ratio of IC50 values PDE1B / PDE9A2, value greater than 1 = greater selectivity for PDE9A2
[9] = IC50 band, 4.0 μM cGMP substrate, 1 hour at R.T.
[10] = ratio of IC50 values PDE1A vs PDE9A2, value greater than 1 indicates greater selectivity for PDE9A2
[11] = ratio of IC50 values PDE1B vs PDE9A2, value greater than 1 indicates greater selectivity for PDE9A2
[12] = ratio of IC50 values, PDE1A versus PDE9A2, value greater than 1 indicates greater selectivity for PDE9A2
[13] = ratio of IC50 values, PDE1B versus PDE9A2, value greater than 1 indicates greater selectivity for PDE9A2
[14] = ratio of IC50 values, value greater than 1 indicates greater selectivity for PDE9A2

IC50 [1, 4]: < 1000 nM | PDE1A selectivity (versus PDE9A2) [2, 5]: 476 | PDE1B selectivity (versus PDE9A2) [3, 5]: 1105
Compound: CC1CN(Cc2ccc(Br)cc2)CC1c1nn2c(C3CCOCC3)ncc2c(=O)[nH]1 (single isomer, unassigned; (+)) [(+)-2-((3,4-trans)-1-(4-bromobenzyl)-4-methylpyrrolidin-3-yl)-7-(tetrahydro-2H-pyran-4-yl)imidazo[5,1-f][1,2,4]triazin-4(3H)-one]

IC50 [1, 6]: < 1000 nM | PDE1A selectivity (versus PDE9A2) [2, 7]: 196 | PDE1B selectivity (versus PDE9A2) [3, 8]: 406
Compound: CC1CN(Cc2ccc(Cl)c(C(F)(F)F)c2)CC1c1nn2c(C3CCOCC3)ncc2c(=O)[nH]1 (single isomer, unassigned; (+)) [(+)-2-((3,4-trans)-1-(4-chloro-3-(trifluoromethyl)benzyl)-4-methylpyrrolidin-3-yl)-7-(tetrahydro-2H-pyran-4-yl)imidazo[5,1-f][1,2,4]triazin-4(3H)-one]

IC50 [1, 4]: < 1000 nM | PDE1A selectivity (versus PDE9A2) [2, 5]: 3575 | PDE1B selectivity (versus PDE9A2) [3, 5]: 6575
Compound: CC1CN(Cc2ccc(Cl)c(F)c2)CC1c1nn2c(C3CCOCC3)ncc2c(=O)[nH]1 (single isomer, unassigned; (+)) [(+)-2-((3,4-trans)-1-(4-chloro-3-fluorobenzyl)-4-methylpyrrolidin-3-yl)-7-(tetrahydro-2H-pyran-4-yl)imidazo[5,1-f][1,2,4]triazin-4(3H)-one]

IC50 [1, 6]: < 1000 nM | PDE1A selectivity (versus PDE9A2) [2, 7]: 466 | PDE1B selectivity (versus PDE9A2) [3, 8]: 818
Compound: Cc1cc(CN2CC(C)C(c3nn4c(C5CCOCC5)ncc4c(=O)[nH]3)C2)ccc1Cl (single isomer, unassigned; (+)) [(+)-2-((3,4-trans)-1-(4-chloro-3-methylbenzyl)-4-methylpyrrolidin-3-yl)-7-(tetrahydro-2H-pyran-4-yl)imidazo[5,1-f][1,2,4]triazin-4(3H)-one]

IC50 [1, 4]: < 1000 nM | PDE1A selectivity (versus PDE9A2) [2, 5]: 595 | PDE1B selectivity (versus PDE9A2) [3, 5]: 1210
Compound: CC1CN(Cc2ccc(Cl)cc2)CC1c1nn2c(C3CCC(F)(F)CC3)ncc2c(=O)[nH]1 (single isomer, unassigned; (+)) [(+)-2-((3,4-trans)-1-(4-chlorobenzyl)-4-methylpyrrolidin-3-yl)-7-(4,4-difluorocyclohexyl)imidazo[5,1-f][1,2,4]triazin-4(3H)-one]

IC50 [1, 9]: < 1000 nM | PDE1A selectivity (versus PDE9A2) [2, 10]: 468 | PDE1B selectivity (versus PDE9A2) [3, 11]: 1106
Compound: Cc1cc(F)ccc1-c1ncc2c(=O)[nH]c(C3CN(Cc4ccc(Cl)cc4)CC3C)nn12 (single isomer, unassigned; (+)) [(+)-2-((3,4-trans)-1-(4-chlorobenzyl)-4-methylpyrrolidin-3-yl)-7-(4-fluoro-2-methylphenyl)imidazo[5,1-f][1,2,4]triazin-4(3H)-one]

IC50 [1, 4]: < 1000 nM | PDE1A selectivity (versus PDE9A2) [2, 5]: 260 | PDE1B selectivity (versus PDE9A2) [3, 5]: 605
Compound: CC1CN(Cc2ccc(C3CC3)cc2)CC1c1nn2c(C3CCOCC3)ncc2c(=O)[nH]1 (single isomer, unassigned; (+)) [(+)-2-((3,4-trans)-1-(4-cyclopropylbenzyl)-4-methylpyrrolidin-3-yl)-7-(tetrahydro-2H-pyran-4-yl)imidazo[5,1-f][1,2,4]triazin-4(3H)-one]

IC50 [1, 4]: < 1000 nM | PDE1A selectivity (versus PDE9A2) [2, 5]: 1687 | PDE1B selectivity (versus PDE9A2) [3, 5]: 1097
Compound: CC1CN(Cc2ccc(F)c(C(F)(F)F)c2)CC1c1nn2c(C3CCOCC3)ncc2c(=O)[nH]1 (single isomer, unassigned; (+)) [(+)-2-((3,4-trans)-1-(4-fluoro-3-(trifluoromethyl)benzyl)-4-methylpyrrolidin-3-yl)-7-(tetrahydro-2H-pyran-4-yl)imidazo[5,1-f][1,2,4]triazin-4(3H)-one]

IC50 [1, 4]: < 1000 nM | PDE1A selectivity (versus PDE9A2) [2, 5]: 664 | PDE1B selectivity (versus PDE9A2) [3, 5]: 714
Compound: CC1CN(Cc2ccc(F)cc2)CC1c1nn2c(C3CCOCC3)ncc2c(=O)[nH]1 (single isomer, unassigned; (+)) [(+)-2-((3,4-trans)-1-(4-fluorobenzyl)-4-methylpyrrolidin-3-yl)-7-(tetrahydro-2H-pyran-4-yl)imidazo[5,1-f][1,2,4]triazin-4(3H)-one]

IC50 [1, 6]: < 1000 nM | PDE1A selectivity (versus PDE9A2) [2, 7]: 15 | PDE1B selectivity (versus PDE9A2) [3, 8]: 16
Compound: CC1CN(Cc2cc(Cl)ccc2F)CC1c1nn2c(C3CCOCC3)ncc2c(=O)[nH]1 (single isomer, unassigned; (+)) [(+)-2-((3,4-trans)-1-(5-chloro-2-fluorobenzyl)-4-methylpyrrolidin-3-yl)-7-(tetrahydro-2H-pyran-4-yl)imidazo[5,1-f][1,2,4]triazin-4(3H)-one]

IC50 [1, 9]: < 1000 nM | PDE1A selectivity (versus PDE9A2) [2, 10]: 90 | PDE1B selectivity (versus PDE9A2) [3, 11]: 250
Compound: CC1CN(Cc2nc3ccccc3[nH]2)CC1c1nn2c(C3CCC(F)(F)CC3)ncc2c(=O)[nH]1 (single isomer, unassigned; (+)) [(+)-2-((3,4-trans)-1-((1H-benzo[d]imidazol-2-yl)methyl)-4-methylpyrrolidin-3-yl)-7-(4,4-difluorocyclohexyl)imidazo[5,1-f][1,2,4]triazin-4(3H)-one]

Continued, compound first:

Compound: Cc1ccccc1-c1ncc2c(=O)[nH]c(C3CN(Cc4ccc(Cl)cc4)CC3C)nn12 (single isomer, unassigned; (+)) [(+)-2-((3,4-trans)-1-(4-chlorobenzyl)-4-methylpyrrolidin-3-yl)-7-(o-tolyl)imidazo[5,1-f][1,2,4]triazin-4(3H)-one]
IC50 ([1]; read-out: Band (PDE9A2 IC50)): < 1000 nM | PDE1A selectivity (versus PDE9A2) [2, 12]: 55 | PDE1B selectivity (versus PDE9A2) [3, 13]: 109

Compound: CC1CN(Cc2ccc(F)cc2)CC1c1nn2c(-c3ccccc3F)ncc2c(=O)[nH]1 (single isomer, unassigned; (+)) [(+)-2-((3,4-trans)-1-(4-fluorobenzyl)-4-methylpyrrolidin-3-yl)-7-(2-fluorophenyl)imidazo[5,1-f][1,2,4]triazin-4(3H)-one]
IC50 [1, 6]: < 1000 nM | PDE1A selectivity (versus PDE9A2) ([2]; ratio of IC50 values PDE1A / PDE9A2, value greater than 1 indicates greater selectivity for PDE9A2): 62 | PDE1B selectivity (versus PDE9A2) ([3]; ratio of IC50 values PDE1B / PDE9A2, value greater than 1 indicates greater selectivity for PDE9A2): 165

Compound: CC1CN(Cc2ccc(F)cc2)CC1c1nn2c(-c3cccc(F)c3)ncc2c(=O)[nH]1 (single isomer, unassigned; (+)) [(+)-2-((3,4-trans)-1-(4-fluorobenzyl)-4-methylpyrrolidin-3-yl)-7-(3-fluorophenyl)imidazo[5,1-f][1,2,4]triazin-4(3H)-one]
IC50 ([1]; read-out: Band (PDE9A2 IC50)): < 1000 nM | PDE1A selectivity (versus PDE9A2) [2, 12]: 42 | PDE1B selectivity (versus PDE9A2) [3, 13]: 57

Compound: Cc1ccccc1-c1ncc2c(=O)[nH]c(C3CN(Cc4ccc(F)cc4)CC3C)nn12 (single isomer, unassigned; (+)) [(+)-2-((3,4-trans)-1-(4-fluorobenzyl)-4-methylpyrrolidin-3-yl)-7-(o-tolyl)imidazo[5,1-f][1,2,4]triazin-4(3H)-one]
IC50 ([1]; read-out: Band (PDE9A2 IC50)): < 1000 nM | PDE1A selectivity (versus PDE9A2) [2, 12]: 963 | PDE1B selectivity (versus PDE9A2) [3, 13]: 744

Compound: CCC(CC)c1ncc2c(=O)[nH]c(C3CN(Cc4ccc(F)cc4)CC3C)nn12 (single isomer, unassigned; (+)) [(+)-2-((3,4-trans)-1-(4-fluorobenzyl)-4-methylpyrrolidin-3-yl)-7-(pentan-3-yl)imidazo[5,1-f][1,2,4]triazin-4(3H)-one]
IC50 ([1]; read-out: Band (PDE9A2 IC50)): < 1000 nM | PDE1A selectivity (versus PDE9A2) [2, 12]: 70 | PDE1B selectivity (versus PDE9A2) [3, 13]: 27

Compound: CC1CN(Cc2ccc(F)cc2)CC1c1nn2c(-c3ccccc3)ncc2c(=O)[nH]1 (single isomer, unassigned; (+)) [(+)-2-((3,4-trans)-1-(4-fluorobenzyl)-4-methylpyrrolidin-3-yl)-7-phenylimidazo[5,1-f][1,2,4]triazin-4(3H)-one]
IC50 ([1]; read-out: Band (PDE9A2 IC50)): < 1000 nM | PDE1A selectivity (versus PDE9A2) [2, 12]: 3 | PDE1B selectivity (versus PDE9A2) [3, 13]: 7

Compound: CC1CN(Cc2ncon2)CC1c1nn2c(C3CCOCC3)ncc2c(=O)[nH]1 (single isomer, unassigned; (+)) [(+)-2-((3,4-trans)-1-((1,2,4-oxadiazol-3-yl)methyl)-4-methylpyrrolidin-3-yl)-7-(tetrahydro-2H-pyran-4-yl)imidazo[5,1-f][1,2,4]triazin-4(3H)-one]
IC50 ([1]; read-out: Band (PDE9A2 IC50)): < 1000 nM | PDE1A selectivity (versus PDE9A2) [2, 14]: 35 | PDE1B selectivity (versus PDE9A2) [3, 14]: 63

Compound: CC1CN(Cc2ncno2)CC1c1nn2c(C3CCOCC3)ncc2c(=O)[nH]1 (single isomer, unassigned; (+)) [(+)-2-((3,4-trans)-1-((1,2,4-oxadiazol-5-yl)methyl)-4-methylpyrrolidin-3-yl)-7-(tetrahydro-2H-pyran-4-yl)imidazo[5,1-f][1,2,4]triazin-4(3H)-one]
IC50 ([1]; read-out: Band (PDE9A2 IC50)): < 1000 nM | PDE1A selectivity (versus PDE9A2) [2, 14]: 650 | PDE1B selectivity (versus PDE9A2) [3, 14]: 1528

Compound: Cc1cc(CN2CC(C)C(c3nn4c(C5CCOCC5)ncc4c(=O)[nH]3)C2)n(C)n1 (single isomer, unassigned; (+)) [(+)-2-((3,4-trans)-1-((1,3-dimethyl-1H-pyrazol-5-yl)methyl)-4-methylpyrrolidin-3-yl)-7-(tetrahydro-2H-pyran-4-yl)imidazo[5,1-f][1,2,4]triazin-4(3H)-one]
IC50 [1, 4]: < 1000 nM | PDE1A selectivity (versus PDE9A2) [2, 5]: 487 | PDE1B selectivity (versus PDE9A2) [3, 5]: 670
